Experimental data reported in PubChem BioAssay AID1963862 (Molecular Pharmacology Branch, DTP, NCI, 2024).
pIC50: −log10 of the molar value.

System: KRAS patient-derived spheroids with HUVEC/MSC, viability
Test: Anticancer human tumor 941728-121-R-J1-PDC patient-derived lung adenocarcinoma cell line growth inhibition [KRAS2]
Details: for pIC50: curve of first compound; for viability, T/C: stronger effect = lower value
Outline: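 Combination screen of spheroid viability in tumor-cell co-cultures with endothelial (HUVEC) and mesenchymal stem cell stroma. Each agent was tested in half-log dilutions, topping at clinical Cmax or at 10 microM without a known Cmax.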

[1] = second compound 0.1 µM, first compound 0.0316 µM
[2] = second compound 0.1 µM, first compound 0.1 µM
[3] = second compound 0.1 µM, first compound 0.316 µM
[4] = second compound 0.1 µM, first compound 1 µM
[5] = second compound 0.1 µM, first compound 3.16 µM
[6] = second compound 0.1 µM, first compound 10 µM
[7] = second compound 0.316 µM, first compound 0.0316 µM
[8] = second compound 0.316 µM, first compound 0.1 µM
[9] = second compound 0.316 µM, first compound 0.316 µM
[10] = second compound 0.316 µM, first compound 1 µM
[11] = second compound 0.316 µM, first compound 3.16 µM
[12] = second compound 0.316 µM, first compound 10 µM
[13] = second compound 1 µM, first compound 0.0316 µM
[14] = second compound 1 µM, first compound 0.1 µM
[15] = second compound 1 µM, first compound 0.316 µM
[16] = second compound 1 µM, first compound 1 µM
[17] = second compound 1 µM, first compound 3.16 µM
[18] = second compound 1 µM, first compound 10 µM
[19] = second compound 3.16 µM, first compound 0.0316 µM
[20] = second compound 3.16 µM, first compound 0.1 µM
[21] = second compound 3.16 µM, first compound 0.316 µM
[22] = second compound 3.16 µM, first compound 1 µM
[23] = second compound 3.16 µM, first compound 3.16 µM
[24] = second compound 3.16 µM, first compound 10 µM
[25] = second compound 10 µM, first compound 0.0316 µM
[26] = second compound 10 µM, first compound 0.1 µM
[27] = second compound 10 µM, first compound 0.316 µM
[28] = second compound 10 µM, first compound 1 µM
[29] = second compound 10 µM, first compound 3.16 µM
[30] = second compound 10 µM, first compound 10 µM
[31] = second compound 0.1 µM, first compound 0.000316 µM
[32] = second compound 0.1 µM, first compound 0.001 µM
[33] = second compound 0.1 µM, first compound 0.00316 µM
[34] = second compound 0.1 µM, first compound 0.01 µM
[35] = second compound 0.316 µM, first compound 0.000316 µM
[36] = second compound 0.316 µM, first compound 0.001 µM
[37] = second compound 0.316 µM, first compound 0.00316 µM
[38] = second compound 0.316 µM, first compound 0.01 µM
[39] = second compound 1 µM, first compound 0.000316 µM
[40] = second compound 1 µM, first compound 0.001 µM
[41] = second compound 1 µM, first compound 0.00316 µM
[42] = second compound 1 µM, first compound 0.01 µM
[43] = second compound 3.16 µM, first compound 0.000316 µM
[44] = second compound 3.16 µM, first compound 0.001 µM
[45] = second compound 3.16 µM, first compound 0.00316 µM
[46] = second compound 3.16 µM, first compound 0.01 µM
[47] = second compound 10 µM, first compound 0.000316 µM
[48] = second compound 10 µM, first compound 0.001 µM
[49] = second compound 10 µM, first compound 0.00316 µM
[50] = second compound 10 µM, first compound 0.01 µM
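Further: spheroids exposed to agents for seven days before readout.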

Compound | pIC50 (second compound 0.1 µM) | pIC50 (second compound 0.316 µM) | pIC50 (second compound 1 µM) | pIC50 (second compound 3.16 µM) | pIC50 (second compound 10 µM) | viability, T/C [1] | viability, T/C [2] | viability, T/C [3] | viability, T/C [4] | viability, T/C [7] | viability, T/C [8] | viability, T/C [9] | viability, T/C [10] | viability, T/C [13] | viability, T/C [14] | viability, T/C [15] | viability, T/C [19] | viability, T/C [20] | viability, T/C [25] | viability, T/C [26] | other results
CC(C)NCC(C(=O)N1CCN(c2ncnc3c2C(C)CC3O)CC1)c1ccc(Cl)cc1 (stereo not given) + COc1cc2nc(C)nc(NC(C)c3cc(N)cc(C(F)(F)F)c3)c2cc1OC1CCOC1 | 7.49 | > 7.50 | > 7.50 | > 7.50 | > 7.50 | 49.7% | 46.5% | 34.1% | 23.4% | 44% | 41.4% | 32.5% | 21.5% | 40.4% | 34.8% | 29.7% | 35.1% | 35.2% | 13.4% | 9.39% | viability, T/C [5]: 11.8%; viability, T/C [6]: 8.21%; viability, T/C [11]: 10.3%; viability, T/C [12]: 11.1%; viability, T/C [16]: 23.1%; viability, T/C [17]: 10.3%; viability, T/C [18]: 1.68%; viability, T/C [21]: 36.7%; viability, T/C [22]: 13%; viability, T/C [23]: 5.96%; viability, T/C [24]: 5.42%; viability, T/C [27]: 3.04%; viability, T/C [28]: 1.04%; viability, T/C [29]: 0.52%; viability, T/C [30]: 0.66%
CC(C)n1nc(-c2ccc3oc(N)nc3c2)c2c(N)ncnc21 + COc1cc2nc(C)nc(NC(C)c3cc(N)cc(C(F)(F)F)c3)c2cc1OC1CCOC1 | > 9.50 | > 9.50 | > 9.50 | > 9.50 | > 9.50 | 31% | 28.3% | – | – | 24.9% | 16.7% | – | – | 19.9% | 12.8% | – | 12.6% | 4.73% | 0.71% | 4.65% | viability, T/C [31]: 41.2%; viability, T/C [32]: 47.9%; viability, T/C [33]: 40.9%; viability, T/C [34]: 33.3%; viability, T/C [35]: 42.4%; viability, T/C [36]: 50%; viability, T/C [37]: 40.4%; viability, T/C [38]: 24.3%; viability, T/C [39]: 40.8%; viability, T/C [40]: 37%; viability, T/C [41]: 26.1%; viability, T/C [42]: 19.8%; viability, T/C [43]: 31.4%; viability, T/C [44]: 31.9%; viability, T/C [45]: 18.5%; viability, T/C [46]: 15%; viability, T/C [47]: 7.59%; viability, T/C [48]: 6.39%; viability, T/C [49]: 2.23%; viability, T/C [50]: 2.22%
CC1(C)CCC(CN2CCN(c3ccc(C(=O)NS(=O)(=O)c4ccc(NCC5CCOCC5)c([N+](=O)[O-])c4)c(Oc4cnc5[nH]ccc5c4)c3)CC2)=C(c2ccc(Cl)cc2)C1 + COc1cc2nc(C)nc(NC(C)c3cc(N)cc(C(F)(F)F)c3)c2cc1OC1CCOC1 | > 7.50 | > 7.50 | > 7.50 | > 7.50 | > 7.50 | 38.8% | 40.6% | 36.4% | 33.9% | 36.7% | 33% | 38.5% | 31.8% | 35.2% | 46.4% | 34.4% | 39.2% | 34% | 19.6% | 19.7% | viability, T/C [5]: 6.79%; viability, T/C [6]: 4.58%; viability, T/C [11]: 7.02%; viability, T/C [12]: 3.43%; viability, T/C [16]: 32.2%; viability, T/C [17]: 7.71%; viability, T/C [18]: 1.61%; viability, T/C [21]: 32.2%; viability, T/C [22]: 29.6%; viability, T/C [23]: 5.76%; viability, T/C [24]: 3.49%; viability, T/C [27]: 17.5%; viability, T/C [28]: 7.37%; viability, T/C [29]: 1.44%; viability, T/C [30]: 0.52%
CCN1CCN(Cc2ccc(Nc3ncc(F)c(-c4cc(F)c5nc(C)n(C(C)C)c5c4)n3)nc2)CC1 + COc1cc2nc(C)nc(NC(C)c3cc(N)cc(C(F)(F)F)c3)c2cc1OC1CCOC1 | > 8.50 | > 8.50 | > 8.50 | > 8.50 | > 8.50 | 34.2% | 36.8% | 42% | 43.3% | 28.8% | 31.7% | 35.3% | 40.8% | 28.5% | 27.7% | 22.1% | 21.1% | 19.5% | 2.12% | 0.46% | viability, T/C [33]: 45.9%; viability, T/C [34]: 41%; viability, T/C [37]: 44.2%; viability, T/C [38]: 35.3%; viability, T/C [41]: 27.8%; viability, T/C [42]: 28.7%; viability, T/C [16]: 32.9%; viability, T/C [45]: 23.3%; viability, T/C [46]: 22.7%; viability, T/C [21]: 15.6%; viability, T/C [22]: 14.5%; viability, T/C [49]: 17.2%; viability, T/C [50]: 6.08%; viability, T/C [27]: 0.87%; viability, T/C [28]: 0.85%
CCNC(=O)CC1N=C(c2ccc(Cl)cc2)c2cc(OC)ccc2-n2c(C)nnc21 (stereo not given) + COc1cc2nc(C)nc(NC(C)c3cc(N)cc(C(F)(F)F)c3)c2cc1OC1CCOC1 | 7.44 | > 7.50 | > 7.50 | > 7.50 | > 7.50 | 49.5% | 48.2% | 30.6% | 16.1% | 46.2% | 42.6% | 34.4% | 12.6% | 45.1% | 40.7% | 29.2% | 38.3% | 33% | 20.3% | 13.9% | viability, T/C [5]: 11.1%; viability, T/C [6]: 9.43%; viability, T/C [11]: 9.51%; viability, T/C [12]: 9.32%; viability, T/C [16]: 8.81%; viability, T/C [17]: 7.25%; viability, T/C [18]: 6.02%; viability, T/C [21]: 23.5%; viability, T/C [22]: 8.14%; viability, T/C [23]: 7.37%; viability, T/C [24]: 8.71%; viability, T/C [27]: 14.2%; viability, T/C [28]: 3.3%; viability, T/C [29]: 2.65%; viability, T/C [30]: 1.91%
Cn1ncnc1[C@H]1c2n[nH]c(=O)c3cc(F)cc(c23)N[C@@H]1c1ccc(F)cc1 + COc1cc2nc(C)nc(NC(C)c3cc(N)cc(C(F)(F)F)c3)c2cc1OC1CCOC1 | < 7.00 | > 9.50 | > 9.50 | > 9.50 | > 9.50 | 66.2% | 58.8% | – | – | 47.6% | 48% | – | – | 33.5% | 28.7% | – | 22.1% | 23.6% | 9.61% | 10.3% | viability, T/C [31]: 61.1%; viability, T/C [32]: 51.9%; viability, T/C [33]: 47.1%; viability, T/C [34]: 52.2%; viability, T/C [35]: 48.9%; viability, T/C [36]: 41.8%; viability, T/C [37]: 36.7%; viability, T/C [38]: 36.8%; viability, T/C [39]: 41.6%; viability, T/C [40]: 31.4%; viability, T/C [41]: 30.7%; viability, T/C [42]: 25.6%; viability, T/C [43]: 36.6%; viability, T/C [44]: 34.4%; viability, T/C [45]: 32.1%; viability, T/C [46]: 27.4%; viability, T/C [47]: 14.5%; viability, T/C [48]: 11.8%; viability, T/C [49]: 13.1%; viability, T/C [50]: 8%
